# Test results reported in patent publication US6106872A, “Process for obtaining aroma components and aromas from their precursors of a glycosidic nature, and aroma components and aromas thereby obtained” (Gist-brocades NV, priority 1988, dated 2000).
# “Also recorded” adds a separate entry of the source.
# Legend:
# [1] = Sequential enzymatic hydrolysis of HPLC fractions (peaks A and B), GC analysis; format: biochemical, Muscat de Frontignan variety grapes
# Method: The benefits of high performance liquid chromatography were exploited for isolating some terpene glycosides. For this purpose, fractions were collected as they emerged from the chromatographic system (more especially on elution of the peaks A and B) during the separation of the constituents of the glycosidic extract. (FIG. 10 below). Fifteen successive injections of 20 μl each enabled sufficient material to be isolated for the enzymatic hydrolyses and the analyses by GC to be performed in order to identify the compounds in question.
# The chromatographic system consists of the following components: a Vista 5500 chromatograph equipped with a variable wavelength UV/visible spectrophotometer (Varian Assoc., Sunnyvale, Calif., USA); a six-way injection valve (Valco) equipped with a 20-μl loop; a stainless steel column (220×4 mm I.D.) filled with Spheri-5 (Brownlee Labs., Santa Clara, Calif., USA) octadecyl grafted silica of small particle size (5 μm); as well as a precolumn (37×4 mm I.D.) packed with the same stationary phase.
# The chromatography is carried out using a water/-acetonitrile aqueous-organic mobile phase (reversed-phase polarity chromatography) and an elution graduated according to an increase in the acetonitrile content from 30 to 40% (by volume) in the course of 10 minutes. The elution solvent is pumped at a flow rate of 1 ml/min. The detection is performed at 200 nm and 0.5 absorbance unit full-scale.
# Furthermore, each fraction was subjected to the sequential action of α-arabinosidase and then β-glucosidase. At the end of each stage and according to the procedures described, the incubated medium was analysed by GC in order to test for sugars and glucosides on the one hand, and for terpenols on the other hand. Thus, the peaks A and B were identified, respectively, as neryl and geranyl α-L-arabinofuranosyl-β-D-glucopyranosides. The identity of the geranyl glycoside was verified, in addition, by co-injection of the glycosidic extract with the synthetic compound.
# [2] = Enzymatic hydrolysis on natural media by commercial enzyme preparations; format: biochemical, Muscat d'Alexandrie variety grapes; details: Hemicellulase + Naringinase, 25° C., 86 hours
# Method: The enzymatic hydrolysis of a glycosidic extract incorporated, on the one hand into a natural medium (must or dry wine), and on the other hand into a reference medium (buffer), by the action of commercial preparations containing the requisite three glycosidases, was studied.
# A juice and a wine of a vine variety not containing terpenols and terpene glycosides, but enriched beforehand with a known amount of glycosidic extract of muscat, are treated with commercial enzyme preparations. The media, as well as controls, are incubated at 25° C. for 86 hours (see the experimental protocol plan below). They are then passed through a column of Amberlite XAD-2 according to the protocol applied for the production of the glycosidic extract, and the terpenols are assayed by GC.
# (4) The glycosidic extract used is obtained by passing a must of Muscat d'Alexandrie variety grapes through Amberlite XAD-2. The amount of glycosidic extract (1 ml) added in the tests corresponds to that found in 50 ml of must of Muscat d'Alexandrie variety grapes.
# [3] = Enzymatic hydrolysis of a glycosidic extract (TLC and GC monitoring); format: biochemical, Muscat de Frontignan variety grapes; details: for % of monoglucosides: Table 5, both enzymes together; for Terpene monoglucosides liberated by α-arabinosidase / Terpene monoglucosides liberated by α-rhamnosidase: Table 5, percentage of the total amount liberated by the two enzymes
# Method: Thin-layer adsorption chromatography was carried out on pieces of aluminum foil covered with a thin layer (0.2 mm) of silica gel (5553 Silica gel 60 without a fluorescence indicator, Merck). An ethyl acetate/isopropanol/water (65:30:10 v/v/v) mixture was used as a migration solvent.
# The sugars and the glycosides are visualized by means of the following mixture, prepared immediately before use: 0.2% napthoresorcinol in ethanol/concentrated sulphuric acid (19:1 v/v). The application of this visualizing agent is followed by drying the plates in the oven (105° C.) for 15 minutes. Apart from their migration distance, the various compounds are also distinguished by their color. The glycosides are purple-red, the arabinosides are bluish, rhamnose greenish pink, arabinose blue and glucose pink.
# 40 μl of glycosidic extract and 60 μl of a solution of Glc-pNP (internal standard) at a concentration of 50 mg/l in ethyl acetate are introduced into a suitable flask. The mixture is taken to dryness at 40° C. with a stream of nitrogen. 40 μl of the silylating reagent (Tri-sil, Pierce, Rockford, Ill., USA) are then introduced; the flask is sealed and maintained at 40° C. for 20 minutes. After rapid cooling, the silylated sample is then ready for analysis by GC.
# The apparatus used consists of a Series 30C gas chromatograph, an "on-column" injector (injected volume 0.5 μl) and a flame ionization detector (Girdel, France). A thin film (0.20 μm) of an OV-1 (girdel) apolar silicone phase is grafted onto the inner wall of the capillary column ([…].). The oven temperature is programmed from 125 to 305° C. at the rate of 5° C./minute, then maintained at 305° C. for 15 minutes. Finally, the detector temperature is set at 300° C. and hydrogen is used as the carrier gas at a pressure of 120 kPa.
# The monoterpene alcohols studied here are sufficiently volatile to be chromatographed as they are. To the pentane extract containing them, the internal standard, 4-nonanol (for synthesis, Merck, Darmstadt, FRG) is added in the proportion of 1 μl of a solution at a concentration of 2.89 mg/ml in pentane per 50 μl of medium. The mixture is then dried over sodium sulphate, filtered through glass wool and then concentrated to a volume in the region of 100 μl. For this purpose, the pentane is first removed using a conventional still, and then a Dufton type column of a size suited to the volume remaining to be concentrated.
# The constituents of the concentrated extract are separated using a capillary column (25 m×0.32 mm I.D.) containing a CP wax 52 CB (Chrompack, Middelburg, Netherlands) polar phase. The grafted polyethylene glycol film was selected thick (1.28 μm) in order to permit the injection of large sample volumes, up to 4 μl. The analysis is performed using a Fractovap Series 2900 (Carlo Erba, Milan, Italy) chromatograph, equipped with a flame ionization detector maintained at 250° C. and an "on-column" injector. Hydrogen was used as the carrier gas at a pressure of 60 kPa, and the oven temperature was programmed as follows: isothermal at 70° C. for 5 minutes, followed by a rise to 195° C. at the rate of 2° C./minute and a plateau at 195° C. for 15 minutes.
# The glycosidic extract was obtained by extraction of a must of Muscat de Frontignan variety grapes collected at maturity in the vines of the Station Experimentale de Pech Rouge (INRA Gruissan, France), followed by removal of the free terpenols and sugars.
# The glycoside fraction was taken to dryness under vacuum and then taken up in 18 ml of water. The glycosidic extract used in the chromatographic and enzymatic experiments was thereby obtained.
# The experimental protocols for the enzymatic hydrolysis on the glycosidic extract are collated in Table 3. […]
# [4] = Enzymatic hydrolyses on synthetic substrates (TLC, pNP, GC); format: biochemical; details: from the synthetic glycosides
# Excerpt: The enzymatic hydrolysis is followed by thin-layer chromatography (TLC) and by gas chromatography (GC).
# In all the tests relating to the enzymatic hydrolysis of the synthetic substrates, the same glycosidase activity (0.15 nkat) is used for each of the enzymes (α-arabinosidase, α-rhamnosidase, β-glucosidase).
SMILES,% of monoglucosides [3] [%],Terpene monoglucosides liberated by α-arabinosidase [3] [%],Terpene monoglucosides liberated by α-rhamnosidase [3] [%],other results
"CC(C)=CCC/C(C)=C\CO[C@@H]1O[C@H](CO[C@@H]2O[C@@H](CO)[C@H](O)[C@H]2O)[C@@H](O)[C@H](O)[C@H]1O (single isomer, unassigned) [Peak A, neryl α-L-arabinofuranosyl-(1--> 6)-β-D-glucopyranoside]",–,–,–,Compounds appearing after action of α-arabinosidase [1]: arabinose; also recorded: Glc--Ner; Compounds appearing after action of α-arabinosidase and then β-glucosidase [1]: glucose; also recorded: nerol
"CC(C)=CCC/C(C)=C/CO[C@@H]1O[C@H](CO[C@@H]2O[C@@H](CO)[C@H](O)[C@H]2O)[C@@H](O)[C@H](O)[C@H]1O (single isomer, unassigned) [Peak B, geranyl α-L-arabinofuranosyl-(1--> 6)-β-D-glucopyranoside]",–,–,–,Compounds appearing after action of α-arabinosidase [1]: arabinose; also recorded: Glc--Ger; Compounds appearing after action of α-arabinosidase and then β-glucosidase [1]: glucose; also recorded: geraniol
"OCc1ccccc1 [Benzyl alcohol, benzyl alcohol]",–,–,–,"Compounds liberated relative to the reference medium ([2]; MUST (pH 3.4, sugars 180 g/l)): 46%; Compounds liberated relative to the reference medium ([2]; WINE (dry white, pH 3.1)): 50%"
"CC(C)=CCC/C(C)=C/CO[C@@H]1O[C@H](CO)[C@@H](O)[C@H](O)[C@H]1O [Glc--Ger, geranyl β-D-glucopyranoside]",48,39,9,–
"C=CC(C)(CCC=C(C)C)O[C@@H]1O[C@H](CO)[C@@H](O)[C@H](O)[C@H]1O (stereo partly drawn) [Glc--Lin, linalyl β-D-glucopyranoside]",19,10,9,–
"CC(C)=CCC/C(C)=C\CO[C@@H]1O[C@H](CO)[C@@H](O)[C@H](O)[C@H]1O [Glc--Ner, neryl β-D-glucopyranoside]",33,28,5,–
"C=CC(C)(O)CCC=C(C)C (stereo not drawn) [Linalol, linalool]",–,–,–,"Compounds liberated relative to the reference medium ([2]; MUST (pH 3.4, sugars 180 g/l)): 9%; Compounds liberated relative to the reference medium ([2]; WINE (dry white, pH 3.1)): 14%"
"O=[N+]([O-])c1ccc(O)cc1 [pNP, p-nitrophenol]",–,–,–,liberation of the aglycones [4]: liberated only after the sequential action of both glycosidases
